Experiment: 15a plasma levels by LC-MS after a single intraperitoneal dose
Assay type: in vivo
Conditions: apoE−/−, mouse
Procedure: To measure plasma concentrations of 15a over time, Western type diet fed mice were injected with 5 mg/kg 15a, after which blood samples were taken at fixed time points (1, 2, 6 and 24 hours after injection). Blood samples were processed as described below under “Measurement of 15a plasma levels”. The final dose of 5 mg/kg/day was based on a pilot study in which two different doses (1.5 and 5 mg/kg/day) were tested using leucocyte migration towards the peritoneal cavity as a read-out. […] In addition, the dose of 5 mg/kg was also based on a previous study with TAK-779[38], in which a dose of 5 mg/kg was used.
Blood plasma from mice was analyzed by LC-MS to determine 15a plasma levels. 20 μL of internal standard (compound 15b, a diastereomer of 15a[24]) and 20 μL of solvent C (20% (v/v) Acetonitrile and 0.1% (v/v) TFA in LC-MS water) were first mixed with 20 µL of plasma. A calibration curve from 2 to 200 ng/ml of 15a was prepared using solvent C. Calibration samples were prepared as normal samples using blanc plasma and calibration solution instead of solvent C. Aliquots of 40 µL of 1% TFA were added to the samples and mixed well. After addition of 900 µL of ethyl acetate, mixing was performed for 5 minutes at a titramax plate shaker (Heidolph, Swabach, Germany). Samples were then centrifuged at 15,000 × g during 10 minutes and 800 µL of the supernatant was evaporated in a vacuum centrifuge (Labconco, Kansas City, Missouri). The sample was reconstituted by mixing with 10 µL of acetonitrile, followed by addition of 40 µL solvent C. After a second centrifugation at 15,000 × g for 10 minutes, 35 µL of supernatant were transferred to LC vials and inserted into the LC-MS system consisting of a Nexera X2 UHPLC system with two UHPLC pumps (Shimadzu, ’s Hertogenbosch, The Netherlands) connected to a TSQ Quantum Ultra (Thermo Fisher Scientific, Breda, The Netherlands). Separation of 15a was accomplished in a Gemini 3 µm C18 reversed phase HPLC column (50 × 4.6 mm) (Phenomenex, Amstelveen, The Netherlands) using an injection volume of 10 µL and a flow rate of 0.6 ml/min at 40 °C. After elution of 15a with a 9:11 (v/v) ratio of acetonitrile in water with 0.1% TFA, the column was flushed with a gradient up to 90% acetonitrile with 0.1% TFA. The column was re-equilibrated with a 9:11 (v/v) ratio of acetonitrile in water with 0.1% TFA before the next injection. […] The collision energy used was 26 V at a skimmer offset of 16 V, the scan peak width was 0.5 m/z, while the scan time was 0.3 seconds. Sheath gas and auxiliary gas pressure (Nitrogen) were set to 60 and 5 respectively (arbitrary units), and the collision gas Argon was set at 1.0 atm.
To determine the maximal value of k off that would prolong the receptor occupancy even further, we used equation (2)[28], in which BF represents the percentage of target occupancy divided by 100 and t 1/2el represents the plasma elimination half-life (0.693/k el). In this case we set BF to 0.90, as 90% represents the minimum value of target occupancy to achieve efficacy. To obtain the elimination rate constant of compound 15a, a linear regression analysis of the natural logarithm of the concentrations versus time was performed, and the slope coefficient was used as the elimination rate constant k el.2 koff<0.693⋅(1−BF)/t1/2el

**Q.** Which k el (intraperitoneal, 5 mg/kg, slope of the linear regression of the pharmacokinetic data, read-out: k el (elimination rate constant) (converted)) does the source give for `CC(C)[C@]1(C(=O)N2CCc3ccc(C(F)(F)F)cc3C2)CC[C@@H](N[C@@H]2CCc3cc(Br)ccc32)C1` [15a, ((1S,3R)-3-(((R)-5-bromo-2,3-dihydro-1H-inden-1-yl)amino)-1-isopropylcyclopentyl)(7-(trifluoromethyl)-3,4-dihydroisoquinolin-2(1H)-yl)methanone] here?
**A.** The k el was 1.8e-05 s⁻¹.

**Q.** And the concentration at 1 h (ip, single intraperitoneal dose of 5 mg/kg, mice, range of individual mice, read-out: plasma levels 1 h after administration)?
**A.** Its concentration at 1 h is 12 to 1460 ng/mL.

**Q.** And the concentration at 2 h (ip, single intraperitoneal dose of 5 mg/kg, mice, range of individual mice, read-out: plasma levels 2 h after dosing)?
**A.** Its concentration at 2 h is 613 to 1050 ng/mL.

**Q.** What about the concentration at 6 h (ip, single intraperitoneal dose of 5 mg/kg, mice, range of individual mice, read-out: plasma levels 6 h after administration) of the same compound?
**A.** Its concentration at 6 h is 182 to 1020 ng/mL.

**Q.** And the concentration at 24 h (ip, single intraperitoneal dose of 5 mg/kg, mice, range of individual mice, read-out: plasma levels 24 h after administration)?
**A.** Its concentration at 24 h is 32 to 331 ng/mL.

**Q.** What about the half-life (ip, single intraperitoneal dose of 5 mg/kg, mice, read-out: elimination half-life (converted)) of the same compound?
**A.** Its half-life is 10.7 h.

From PMC5427923, “A novel CCR2 antagonist inhibits atherogenesis in apoE deficient mice by achieving high receptor occupancy” (Scientific Reports, 2017)
